Measurements: US20120148509A1, “COMPOSITION FOR ALLEVIATING ULTRAVIOLET IRRADIATION-INDUCED DAMAGE” (Shiseido Company, Ltd., priority 2009, published 2012)
Where two headings read alike, the source gives them in different places.

How the values were obtained:
[1] = system: human neonatal dermal fibroblast; test: UV-A irradiation-induced cell damage, amino acid added after irradiation (Alamar Blue); assay type: cell-based; settings: for percentage of the viable cell: UV-A 8 J/cm^2, FIG. 3; for fluorescent intensity of Alamar Blue: without irradiation 764, negative control 348
Protocol: (§1) The cell employed was a commercially available human neonatal dermal fibroblast (Cryo NHDF-Neo, Sanko-Junyaku Co., Ltd.). This cell was inoculated at 2×10^5 cells/mL to a commercially available culture dish of 35 mm in diameter (BD FALCON 353001, Becton Dickinson Japan), where it was cultured in a commercially available cell culture medium (D-MEM (1 g/L glucose, Wako Pure Chemical Industries, Ltd.) supplemented with 10% fetal bovine serum (hereinafter, referred to as “normal medium”). The cell described above may be cultured in the normal medium described above supplemented with an antibiotic (15240-062, Gibco) at 1%. This cell was cultured for about 24 hours in a 5% CO2 and saturated water vapor atmosphere at 37° C. (degrees Celsius).
(§2) Thereafter, the culture medium for culturing the cell described above was switched to 1 mL of a BSO medium supplemented with a glutathione biosynthesis inhibitor BSO (L-buthionine-(S,R)-sulfoximine, Wako Pure Chemical Industries, Ltd.) at 1×10^−3%, where the culture was conducted for about 24 hours in a 5% CO2 and saturated water vapor atmosphere at 37° C. (degrees Celsius). The BSO medium described above was prepared by a 200-fold dilution of a stock solution containing 0.2% BSO dissolved in ethyl alcohol with the normal medium described above.
(§3) […] was dissolved in a distilled water at 2×10^−3%, and the resultant solution was subjected to a 200-fold dilution (final concentration: 1×10^−5%) with a phosphate buffered saline PBS (+) containing calcium ion and magnesium ion to obtain a medium (hereinafter, referred to as “UV irradiation medium”), which was warmed preliminarily to 37° C. before use.
(§4) Before UV-A irradiation, the culture medium was replaced with 1 mL of the UV irradiation medium described above. […] The UV dose was measured using UV RADIOMETER UVR-3036/S (Topcon Corporation).
After UV-A irradiation at 8 J/cm^2, the medium was returned to the normal medium described above, and the culture was conducted in a 5% CO2 and saturated water vapor atmosphere at 37° C. (degrees Celsius) for 40 hours. For determining the effect of adding methionine after UV irradiation (hereinafter, referred to as “post-irradiation addition of methionine”), this 40-hour cultured medium was added with 0.001 to 100 μM (micro-molar) L- or D-methionine. The ultraviolet irradiation after switching into a medium added with 0.1 μM (micro-molar) D-proline was employed as a positive control, while the ultraviolet irradiation to the medium still being free of such an added amino acid was employed as a negative control.
(§5) Thereafter, the culture medium was supplemented with Alamar Blue (trade mark, Biosource, Biosource International Inc. and Invitrogen) at a final concentration of […], and its supernatant was determined for the fluorescent intensity three hours later with an excitation wavelength of 544 nm and a fluorescent wavelength of 590 nm as described by Ahmed S. A. et al. J. Immunol. Method. 170, 211-224 (1994)) and in accordance with the manufacture's instruction. The percentage of the viable cell was obtained as a percentage of a quotient calculated by dividing the fluorescent intensity of Alamar Blue under each experimental condition by the fluorescent intensity in the negative control group containing no added amino acid.
(§6) the cell culture, the addition of amino acids before the UV irradiation, the UV irradiation, the addition of amino acids after the UV irradiation and the cell damage measurement were conducted similarly to Example 1. The ultraviolet light (UV-A) was irradiated at 7.5 or 9 J/cm^2.

[2] = system: human neonatal dermal fibroblast; settings: for percentage of the viable cell: human, 24 h; for fluorescent intensity of Alamar Blue / effect on cell damage, in words: UV-A 9 J/cm^2, FIG. 4; for fluorescent intensity of Alamar Blue: without irradiation 794, negative control 140; for effect on cell damage, in words: pre-irradiation addition
Protocol: as §1, §2
For determining the effect of adding methionine before ultraviolet irradiation (hereinafter, referred to as “pre-irradiation addition of methionine”), the culture medium was switched to a BSO medium added with 0.0001 to 100 (micro-molar) L-methionine (131-01603, Wako Pure Chemical Industries Ltd.) or D-methionine (2807, Peptide Institute Inc.) 24 hours before the irradiation. The ultraviolet irradiation after switching into a medium added with 0.1 μM (micro-molar) D-proline (165-14671, Wako Pure Chemical Industries Ltd.) was employed as a positive control, while the ultraviolet irradiation to the medium still being free of such an added amino acid was employed as a negative control.
as §3, §4, §5, §6

[3] = post-irradiation addition 0.1 μM
[4] = post-irradiation addition 0.1 μM, UV-A 7.5 J/cm^2, FIG. 6
[5] = pre-irradiation addition 0.1 μM

Compound	percentage of the viable cell [1, 3] [%]	percentage of the viable cell ([2]; 0.0001 μM) [%]	percentage of the viable cell ([2]; 0.01 μM) [%]	percentage of the viable cell ([2]; 1 μM) [%]	percentage of the viable cell ([2]; 10 μM) [%]	percentage of the viable cell ([2]; 100 μM) [%]	fluorescent intensity of Alamar Blue [1, 4]	fluorescent intensity of Alamar Blue [2, 5]	fluorescent intensity of Alamar Blue ([2]; pre-irradiation addition 1 μM)	fluorescent intensity of Alamar Blue ([2]; pre-irradiation addition 10 μM)	effect on cell damage, in words [2]	further results
CSCC[C@@H](N)C(=O)O [D-methionine]	84	50	102	97	114	76	–	–	–	–	–	percentage of the viable cell ([1]; post-irradiation addition 0.01 μM): 93%; percentage of the viable cell ([1]; post-irradiation addition 1 μM): 82%; percentage of the viable cell ([1]; post-irradiation addition 10 μM): 81%; percentage of the viable cell ([1]; post-irradiation addition 100 μM): about 87%
O=C(O)[C@H]1CCCN1 [D-proline, reference compound]	82	–	–	–	–	–	579	610	–	–	–	–
N[C@H](CO)C(=O)O [D-serine]	–	74	92	–	93	–	735	402	371	491	statistically significant increase in the fluorescent intensity	fluorescent intensity of Alamar Blue ([1]; post-irradiation addition 0.01 μM, UV-A 7.5 J/cm^2, FIG. 6): 697; fluorescent intensity of Alamar Blue ([1]; post-irradiation addition 1 μM, UV-A 7.5 J/cm^2, FIG. 6): 742; fluorescent intensity of Alamar Blue ([1]; post-irradiation addition 10 μM, UV-A 7.5 J/cm^2, FIG. 6): 664; fluorescent intensity of Alamar Blue ([1]; post-irradiation addition 100 μM, UV-A 7.5 J/cm^2, FIG. 6): 663; effect on cell damage, in words ([1]; post-irradiation addition, UV-A 7.5 J/cm^2, FIG. 6): statistically significant increase in the fluorescent intensity; fluorescent intensity of Alamar Blue ([2]; pre-irradiation addition 0.01 μM): 445
CSCC[C@H](N)C(=O)O [L-methionine]	–	–	72	45	73	62	–	–	–	–	–	percentage of the viable cell ([2]; 0.001 μM): 40%; percentage of the viable cell ([2]; 0.1 μM): 67%
N[C@@H](CO)C(=O)O [L-serine, reference compound]	–	–	–	–	–	–	–	265	227	270	almost no reduction in the cell damage	–
